The text below walks through data of US8536158B2, “Compounds having CRTH2 antagonist activity” (Atopix Therapeutics Limited, priority 2008, dated 2013).

One data set in a line: Microsomal stability. Type of data set: in vitro ADME, human. Particulars: for Mean Parent remaining (%): 1 x 10^-6 M test compound, human liver microsomes 0.3 mg/ml, mean of two experiments; for unmetabolised in human liver microsomes: text states. The method, then:
The percentage of the test compound remaining in the sample after 1 hour was measured in order to determine the rate of metabolism of test compound. The results are shown in Table 3, which gives the results for two experiments and the mean value obtained.
(In general: Microsomes from liver hold many membrane-bound enzymes, among them those of drug oxidation.)

The target of another data set is CRTH2 receptor (Homo sapiens (Human), UniProt Q9Y5Y4). Description: [3H]PGD2 radioligand binding assay on CHO/CRTH2 cell membranes. Conditions: for Ki: [3H]PGD2, CHO/CRTH2 membranes. As to the method:
Chinese Hamster Ovary cells were transfected with CRTH2 or DP receptors (CHO/CRTH2 and CHO/DP) and were maintained in culture in a humidified atmosphere at 37° C. (5% CO2) in Minimum Essential Medium (MEM) supplemented with 10% foetal bovine serum, 2 mM glutamine, and 1 mg ml^−1 active G418. The cells were passaged every 2-3 days. For radioligand binding assay, cells were prepared in triple-layer flasks or in 175 cm^2 square flasks (for membrane preparation).
Membranes were prepared either from CHO/CRTH2 and CHO/DP cells, or from platelets (as a source of TP receptors). CHO cells grown to confluency were washed with PBS and detached using a Versene solution (15 ml per flask). When the cells were grown in 175 cm^2 square flask, they were collected by scrapping in PBS. The cell suspensions were centrifuged (1,700 rpm, 10 min, 4° C.) and resuspended in 15 ml of buffer (1×HBSS, supplemented with 10 mM HEPES, pH 7.3). Cell suspensions were then homogenised using an Ultra Turrax at setting 4-6 for 20 s. The homogenate was centrifuged at 1,700 rpm for 10 min and the supernatant was collected and centrifuged at 20,000 rpm for 1 h at 4° C. The resulting pellet was resuspended in buffer and stored at −80° C. in aliquots of […] The protein concentration was determined by the method of Bradford (1976), using bovine serum albumin as standard. The platelets were washed by centrifugation at 600×g for 10 min and resuspended in ice-cold assay buffer (10 mM Tris-HCl, pH 7.4, 5 mM Glucose, 120 mM NaCl, 10 μM indomethacin) and directly centrifuged at 20,000 rpm for 30 min at 4° C. The resulting pellet was treated as described above.
[^3H]PGD2 (160 Ci/mmol) binding experiments were performed on membranes prepared as described above. Assays were performed in a final volume of 100 μl of buffer (1×HBSS/HEPES 10 mM, pH 7.3). Cell membranes (15 μg) were preincubated at room temperature with varying concentration of competing ligand for 15 min. [^3H]PGD2 was then added and the incubation continued for a further one hour at room temperature. The reaction was terminated by the addition of 200 μl ice-cold assay buffer to each well, followed by rapid filtration through Whatman GF/B glass fibre filters using a Unifilter Cell harvester (PerkinElmer Life Sciences) and six washes of 300 μl of ice-cold buffer. The Unifilter plates were dried at room temperature for at least 1 h and the radioactivity retained on the filters was determined on a Beta Trilux counter (PerkinElmer Life Sciences), following addition of 40 μl of Optiphase Hi-Safe 3 (Wallac) liquid scintillation. Non specific binding was defined in the presence of 10 μM unlabelled PGD2. Assays were performed in duplicate.

A short description of data set [1]: In vivo pharmacokinetic profile in the dog. Conditions: plasma.
The test system of data set [2] is eosinophils in human whole blood. Description: Human whole blood eosinophil shape change assay (PGD2-induced). Type of data set: cell-based. Particulars: for IC50: Eosinophil, 10 nM PGD2, human whole blood, read-out: IC50 for effect on 10 nM PGD2-induced eosinophil shape change in human whole blood. As to the method: Compounds 1-3 were assayed for their effect on PGD2 induced eosinophil shape change and were compared with Comparator Compounds A, B and D.
Compounds (1 μl, 200× final concentration) were added directly to 200 μl whole blood, mixed well and incubated for 15 min, 37° C., 5% CO2. After this time, cell shape was fixed by addition of 300 μl Cytofix™ buffer (BD Biosciences), 15 min on ice. 10 ml RBC lysis buffer was added to the fixed cells, incubated 5 min, at room temperature and centrifuged, 300×g for 5 min. Supernatant (containing lysed red cells) was removed and the lysis step was repeated. Leukocytes were resuspended in 250 μl RPMI/10% FCS and shape change analysed by FACS. Eosinophils were gated out based on their autofluorescence and 2000 eosinophil events were counted per sample. Data were analysed in triplicate.

CRTH2 receptor, sequence (Q9Y5Y4 whole entry): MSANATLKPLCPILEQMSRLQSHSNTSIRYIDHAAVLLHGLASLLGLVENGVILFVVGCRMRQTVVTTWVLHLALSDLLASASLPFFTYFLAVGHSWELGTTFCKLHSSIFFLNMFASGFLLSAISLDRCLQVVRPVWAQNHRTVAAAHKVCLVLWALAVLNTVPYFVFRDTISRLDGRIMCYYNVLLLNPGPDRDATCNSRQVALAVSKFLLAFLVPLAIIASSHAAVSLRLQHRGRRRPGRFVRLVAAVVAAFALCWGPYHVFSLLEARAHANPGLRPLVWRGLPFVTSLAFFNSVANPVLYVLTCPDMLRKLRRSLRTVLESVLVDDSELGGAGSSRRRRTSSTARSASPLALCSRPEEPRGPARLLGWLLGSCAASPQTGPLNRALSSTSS

Consider `Cc1c(Cc2cccnc2S(=O)(=O)c2ccccc2)c2cc(F)ccc2n1CC(=O)O` [Compound 1, (3-{[2-(Benzenesulfonyl)pyridin-3-yl]methyl}-5-fluoro-2-methylindol-1-yl)-acetic acid], for which, in the data set “Microsomal stability”, the “Mean Parent remaining (%)” value was determined as 96% and the “unmetabolised in human liver microsomes” value is given as 96%. The Ki (commonly a measure of affinity in units of concentration, obtained from inhibition or displacement) on CRTH2 receptor turned out to be 2 nM. The half-life (commonly how long it takes for the measured level to halve) in data set [1] (oral) was 3 h. The IC50 (commonly the point on the concentration scale where inhibition reaches its midpoint) in data set [2] amounted to 9 nM.
In the case of `Cc1c(Cc2cccnc2S(=O)(=O)c2ccc(F)cc2)c2cc(F)ccc2n1CC(=O)O` [Compound 2, [5-Fluoro-3-({2-[(4-fluorobenzene)sulfonyl]pyridin-3-yl}methyl)-2-methylindol-1-yl]-acetic acid], in the data set “Microsomal stability”, the “Mean Parent remaining (%)” value came out at 98% and the “unmetabolised in human liver microsomes” value worked out at 98%. Also, the half-life in data set [1] is 5 h. The IC50 in data set [2] turned out to be 2.5 nM.
Regarding `Cc1c(Cc2cccnc2S(=O)(=O)c2ccc(Cl)cc2)c2cc(F)ccc2n1CC(=O)O` [Compound 3, [3-({2-[(4-Chlorobenzene)sulfonyl]pyridin-3-yl}methyl)-5-fluoro-2-methylindol-1-yl]-acetic acid], the IC50 in data set [2] came to 10 nM.
As for `Cc1c(Cc2ccc(S(C)(=O)=O)cc2)c2cc(F)ccc2n1CC(=O)O` [Compound A, [3-(4-Methylsulfonyl-benzyl)-5-fluoro-2-methyl-indol-1-yl]-acetic acid], the inhibitory constant (Ki) at CRTH2 receptor was 7 nM. The compound also showed a half-life in data set [1] (oral) of 1 h. Further, the half-maximal inhibitory concentration (IC50) in data set [2] was 8 nM.
With `Cc1c(Cc2ccncc2S(=O)(=O)c2ccccc2)c2cc(F)ccc2n1CC(=O)O` [Compound B, [3-(3-Benzenesulfonyl-pyridin-4ylmethyl)-5-fluoro-2-methyl-indol-1-yl]-acetic acid], in “Microsomal stability”, the “Mean Parent remaining (%)” value is 69% and the “unmetabolised in human liver microsomes” value is listed as 69%. Besides, the Ki at CRTH2 receptor was found to be 1 nM. Moreover, the concentration for half-maximal inhibition (IC50) in data set [2] amounted to 34 nM. For the same compound, in data set [2] (eosinophil shape change test, whole blood), the “CRTH2 antagonist potency under physiological conditions (in words)” value is “not a particularly potent CRTH2 antagonist”.
On to `Cc1c(Cc2ncccc2S(=O)(=O)c2ccccc2)c2cc(F)ccc2n1CC(=O)O` [Compound C, [3-(3-Benzenesulfonyl-pyridin-2-ylmethyl)-5-fluoro-2-methyl-indol-1-yl]-acetic acid], for which, in the data set “Microsomal stability”, the “Mean Parent remaining (%)” value worked out at 90% and the “unmetabolised in human liver microsomes” value is 90%. Moreover, on CRTH2 receptor, the “binding to the CRTH2 receptor (in words)” value is reported as “bind only very weakly” and the Ki was 979 nM.
`Cc1c(Cc2cccn2S(=O)(=O)c2ccccc2)c2cc(F)ccc2n1CC(=O)O` [Compound D, [3-(1-Benzenesulfonyl-1H-pyrrol-2-ylmethyl)-5-fluoro-2-methyl-indol-1-yl]-acetic acid]: in the data set “Microsomal stability”, the “Mean Parent remaining (%)” value is listed as 24% and the “unmetabolised in human liver microsomes” value amounted to 24%. Further, the “stability in human microsomes (in words)” value in the data set “Microsomal stability” (human microsomes) is “low stability”. Moreover, in data set [2], the IC50 was 8 nM.
As to `Cc1c(Cc2cccnc2)c2cc(F)ccc2n1CC(=O)O` [Compound E], on CRTH2 receptor, the “binding to the CRTH2 receptor (in words)” value is listed as “bind only very weakly” and the Ki was 258 nM.
